Experiments:
[1] = Antiproliferative activity against TrkA deficient rat RK3E cells after 3 days; format: functional, cell-based; conditions: 72 h
[2] = target: High affinity nerve growth factor receptor (Homo sapiens, UniProt P04629); experiment: Inhibition of TrkA
[3] = Antiproliferative activity against rat RKE cells expressing CD8-TrkA after 3 days; format: functional, cell-based; conditions: 72 h
[4] = test system: SH-SY5Y; experiment: Antiproliferative activity against human SH-SY5Y cells after 3 days; format: functional, cell-based; conditions: 72 h
[5] = target: Cyclin-dependent kinase 2 (Homo sapiens, UniProt P24941); experiment: Inhibition of CDK2
[6] = target: Insulin-like growth factor 1 receptor (Homo sapiens, UniProt P08069); experiment: Inhibition of IGF1R
Insulin-like growth factor 1 receptor, sequence (P08069 31-736 limits assumed): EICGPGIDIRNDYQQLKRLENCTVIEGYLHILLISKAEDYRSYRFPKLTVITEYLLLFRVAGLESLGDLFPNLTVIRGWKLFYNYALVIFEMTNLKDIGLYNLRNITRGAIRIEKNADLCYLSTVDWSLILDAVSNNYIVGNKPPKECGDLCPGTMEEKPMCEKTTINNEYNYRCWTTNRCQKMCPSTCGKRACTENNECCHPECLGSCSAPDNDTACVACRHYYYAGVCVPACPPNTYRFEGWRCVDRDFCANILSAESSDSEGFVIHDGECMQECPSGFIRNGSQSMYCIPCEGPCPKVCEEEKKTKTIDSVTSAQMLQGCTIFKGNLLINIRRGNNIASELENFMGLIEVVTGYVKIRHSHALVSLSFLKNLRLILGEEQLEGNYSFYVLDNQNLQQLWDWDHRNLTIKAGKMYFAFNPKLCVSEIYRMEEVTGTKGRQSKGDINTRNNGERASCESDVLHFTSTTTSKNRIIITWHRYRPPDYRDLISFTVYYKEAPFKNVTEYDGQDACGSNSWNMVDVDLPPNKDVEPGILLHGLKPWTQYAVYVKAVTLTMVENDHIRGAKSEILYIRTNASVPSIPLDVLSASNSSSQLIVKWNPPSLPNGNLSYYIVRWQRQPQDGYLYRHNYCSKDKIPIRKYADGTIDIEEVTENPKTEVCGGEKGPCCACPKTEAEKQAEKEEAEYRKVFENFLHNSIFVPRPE
Insulin-like growth factor 1 receptor, sequence (P08069 741-1367 limits assumed): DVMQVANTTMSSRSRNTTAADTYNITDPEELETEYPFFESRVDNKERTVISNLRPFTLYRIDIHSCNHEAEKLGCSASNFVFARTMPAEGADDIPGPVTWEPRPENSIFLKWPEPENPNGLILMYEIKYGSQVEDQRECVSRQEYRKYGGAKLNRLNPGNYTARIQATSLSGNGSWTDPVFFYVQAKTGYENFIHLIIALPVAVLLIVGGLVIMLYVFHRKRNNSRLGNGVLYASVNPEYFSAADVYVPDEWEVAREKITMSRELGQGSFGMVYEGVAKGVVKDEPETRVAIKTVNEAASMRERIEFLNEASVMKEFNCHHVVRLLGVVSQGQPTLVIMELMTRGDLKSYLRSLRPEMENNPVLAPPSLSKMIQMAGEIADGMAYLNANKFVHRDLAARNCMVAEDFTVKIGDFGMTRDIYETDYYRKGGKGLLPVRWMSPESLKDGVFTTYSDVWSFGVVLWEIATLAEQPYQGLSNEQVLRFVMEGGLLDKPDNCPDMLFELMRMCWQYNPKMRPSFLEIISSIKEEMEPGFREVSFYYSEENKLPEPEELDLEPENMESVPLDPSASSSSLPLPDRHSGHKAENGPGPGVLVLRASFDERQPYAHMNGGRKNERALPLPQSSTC

[7] = target: Hepatocyte growth factor receptor (Homo sapiens, UniProt P08581); experiment: Inhibition of Met
Hepatocyte growth factor receptor, sequence (P08581 whole entry): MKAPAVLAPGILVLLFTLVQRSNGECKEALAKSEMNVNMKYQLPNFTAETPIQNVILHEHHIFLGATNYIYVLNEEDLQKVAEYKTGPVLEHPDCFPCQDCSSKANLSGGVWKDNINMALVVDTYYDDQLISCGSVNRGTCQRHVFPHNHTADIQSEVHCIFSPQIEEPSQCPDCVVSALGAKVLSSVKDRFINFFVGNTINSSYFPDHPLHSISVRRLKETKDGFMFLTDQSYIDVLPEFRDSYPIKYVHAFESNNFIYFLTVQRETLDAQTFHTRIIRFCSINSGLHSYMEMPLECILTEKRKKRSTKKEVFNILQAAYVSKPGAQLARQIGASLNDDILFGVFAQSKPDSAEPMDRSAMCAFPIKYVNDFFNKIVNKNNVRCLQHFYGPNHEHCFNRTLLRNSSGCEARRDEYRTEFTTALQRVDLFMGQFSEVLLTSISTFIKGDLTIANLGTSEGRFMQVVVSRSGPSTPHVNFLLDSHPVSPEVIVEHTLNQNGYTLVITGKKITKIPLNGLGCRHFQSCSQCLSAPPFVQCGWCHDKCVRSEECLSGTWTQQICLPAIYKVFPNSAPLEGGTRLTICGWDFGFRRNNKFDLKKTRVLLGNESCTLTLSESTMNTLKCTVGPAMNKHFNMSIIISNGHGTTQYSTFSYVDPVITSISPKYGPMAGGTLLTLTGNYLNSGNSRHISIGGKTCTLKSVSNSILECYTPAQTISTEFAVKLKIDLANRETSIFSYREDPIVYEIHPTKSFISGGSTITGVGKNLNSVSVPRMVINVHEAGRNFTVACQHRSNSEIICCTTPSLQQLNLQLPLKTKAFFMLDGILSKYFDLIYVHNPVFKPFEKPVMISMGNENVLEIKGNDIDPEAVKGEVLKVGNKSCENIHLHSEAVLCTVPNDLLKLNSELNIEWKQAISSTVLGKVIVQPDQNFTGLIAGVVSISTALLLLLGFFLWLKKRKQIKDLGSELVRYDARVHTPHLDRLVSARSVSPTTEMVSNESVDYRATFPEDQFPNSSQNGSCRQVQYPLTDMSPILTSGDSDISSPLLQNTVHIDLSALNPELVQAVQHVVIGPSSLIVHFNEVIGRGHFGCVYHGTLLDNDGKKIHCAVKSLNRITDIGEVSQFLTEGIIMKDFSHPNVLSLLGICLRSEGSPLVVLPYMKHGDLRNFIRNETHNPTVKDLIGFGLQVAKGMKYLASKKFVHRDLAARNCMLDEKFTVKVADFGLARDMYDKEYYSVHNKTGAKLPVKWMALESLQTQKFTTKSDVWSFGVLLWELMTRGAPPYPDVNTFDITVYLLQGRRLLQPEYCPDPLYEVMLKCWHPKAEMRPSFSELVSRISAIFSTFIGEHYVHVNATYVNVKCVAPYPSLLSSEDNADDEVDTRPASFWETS

[8] = Inhibition of VEGFR at 2 uM
[9] = Inhibition of VEGFR

High affinity nerve growth factor receptor, sequence (P04629 whole entry): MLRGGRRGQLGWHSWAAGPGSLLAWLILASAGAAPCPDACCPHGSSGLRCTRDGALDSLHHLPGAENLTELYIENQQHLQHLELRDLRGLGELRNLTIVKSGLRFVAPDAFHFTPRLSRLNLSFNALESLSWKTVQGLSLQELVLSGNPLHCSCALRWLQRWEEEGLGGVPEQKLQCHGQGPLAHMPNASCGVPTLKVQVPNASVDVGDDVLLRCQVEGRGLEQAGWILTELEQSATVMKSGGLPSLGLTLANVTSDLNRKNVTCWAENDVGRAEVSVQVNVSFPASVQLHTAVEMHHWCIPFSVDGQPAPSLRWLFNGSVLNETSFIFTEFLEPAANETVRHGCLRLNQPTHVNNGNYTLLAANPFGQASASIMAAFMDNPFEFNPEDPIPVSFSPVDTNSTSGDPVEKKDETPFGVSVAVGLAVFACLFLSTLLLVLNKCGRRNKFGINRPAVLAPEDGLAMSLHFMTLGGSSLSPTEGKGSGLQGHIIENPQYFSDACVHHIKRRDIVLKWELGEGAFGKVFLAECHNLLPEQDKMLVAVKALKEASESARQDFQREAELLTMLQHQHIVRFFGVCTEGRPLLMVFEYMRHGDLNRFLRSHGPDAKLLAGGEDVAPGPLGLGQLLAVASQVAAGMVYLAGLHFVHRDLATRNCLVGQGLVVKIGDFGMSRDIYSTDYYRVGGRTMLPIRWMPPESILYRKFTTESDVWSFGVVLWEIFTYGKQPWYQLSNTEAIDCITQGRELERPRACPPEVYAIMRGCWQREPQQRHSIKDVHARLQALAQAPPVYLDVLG

Work on Cc1ccc(Sc2cnc(Nc3cccc(Br)n3)s2)cc1C(=O)N(C)CCC#N yielded an IC50 [1] of 3320 nM, an IC50 [2] of 10 nM and an IC50 [3] of 370 nM. It also gave an IC50 [4] of 1170 nM.

CC(=O)N1CCN(Cc2cc(Sc3cnc(Nc4ccccn4)s3)ccc2C)CC1 gave an IC50 [2] of 720 nM.

Cc1ccc(Sc2cnc(Nc3ccccn3)s2)cc1C(=O)NCCO gave an IC50 [2] of 760 nM.

CCN1CCN(C(=O)c2cc(Sc3cnc(Nc4cccc(Br)n4)s3)ccc2C)CC1 gave an IC50 [2] of 230 nM.

With Cc1ccc(Sc2cnc(Nc3cccc(Br)n3)s2)cc1C(=O)N1CCN(CC(N)=O)CC1 the IC50 [2] was 150 nM.

For CC(=O)N1CCN(C(=O)c2cc(Sc3cnc(N)s3)ccc2C)CC1, the IC50 [2] was > 5000 nM.

With CC(=O)Nc1ncc(Sc2ccc(C)c(C(=O)N3CCN(C(C)=O)CC3)c2)s1 the IC50 [2] was > 5000 nM.

Compound Cc1ccc(Sc2cnc(Nc3ccccn3)s2)cc1C(=O)NCC#N has an IC50 [2] of 44 nM.

In the case of Cc1ccc(Sc2cnc(Nc3cccc(Br)n3)s2)cc1C(=O)N1CCN(C(=O)CN)CC1, the IC50 [5] is reported as 540 nM, the IC50 [1] is reported as 4080 nM and the IC50 [6] is reported as > 1000 nM. For the same compound, the IC50 [7] was 430 nM, the IC50 [2] was 0.6 nM and the IC50 [3] was 550 nM. The IC50 [4] was 3060 nM.

CNCCNC(=O)c1cc(Sc2cnc(Nc3ccccn3)s2)ccc1C showed an IC50 [2] of 190 nM.

CC(=O)N1CCN(C(=O)c2cccc(Sc3cnc(Nc4cccc(Br)n4)s3)c2)CC1 gave an IC50 [2] of 50 nM.

CC(=O)N1CCN(C(=O)c2cccc(Sc3cnc(Nc4cccc(C)n4)s3)c2)CC1 showed an IC50 [2] of 1100 nM.

In the case of Cc1ccc(Sc2cnc(Nc3cccc(Br)n3)s2)cc1C(=O)N1CCN(C(=O)[C@@H](C)N)CC1, the IC50 [5] is reported as 230 nM, the IC50 [1] is reported as 3610 nM and the IC50 [6] is reported as 700 nM. It also gave an IC50 [7] of 170 nM, an IC50 [2] of 1 nM and an IC50 [3] of 230 nM. The IC50 [4] was 1780 nM.

Compound Cc1ccc(Sc2cnc(Nc3ccccn3)s2)cc1C(=O)NCCC#N has an IC50 [2] of 65 nM.

In the case of CNCCN(C)C(=O)c1cc(Sc2cnc(Nc3cccc(Br)n3)s2)ccc1C, the IC50 [5] is reported as 180 nM, the IC50 [1] is reported as 3060 nM and the IC50 [6] is reported as > 1000 nM. For the same compound, the IC50 [7] was > 1000 nM, the IC50 [2] was 31 nM and the IC50 [3] was 460 nM. For the same compound, the IC50 [4] was 1660 nM and the inhibition [8] was 8%.

For CC(=O)N1CCN(C(=O)c2cc(Sc3cnc(Nc4cccc(Br)n4)s3)ccc2C)CC1, the IC50 [5] was 490 nM, the IC50 [1] was 2280 nM and the IC50 [9] was > 25000 nM. The IC50 [6] was > 1000 nM, the IC50 [7] was > 1000 nM and the IC50 [2] was 1 nM. The IC50 [3] was 250 nM and the IC50 [4] was 1140 nM.

In the case of CC(=O)N1CCCN(C(=O)c2cc(Sc3cnc(Nc4ccccn4)s3)ccc2C)CC1, the IC50 [2] is reported as 1100 nM.

Cc1ccc(Sc2cnc(Nc3cccc(Br)n3)s2)cc1C(=O)N(C)CC#N gave an IC50 [1] of 3000 nM, an IC50 [2] of 2 nM and an IC50 [3] of 390 nM. It also gave an IC50 [4] of 750 nM.

Compound CC(=O)N1CCN(C(=O)c2cccc(Sc3cnc(Nc4ccc(Br)cn4)s3)c2)CC1 has an IC50 [2] of 520 nM.

With Cc1ccc(Sc2cnc(Nc3ccccn3)s2)cc1C(=O)NCc1ccccc1 the IC50 [2] was > 5000 nM.

Cc1ccc(Sc2cnc(Nc3cccc(Br)n3)s2)cc1C(=O)NCCC#N showed an IC50 [2] of 67 nM.

In the case of C#CCNC(=O)c1cc(Sc2cnc(Nc3ccccn3)s2)ccc1C, the IC50 [2] is reported as 1200 nM.

For Cc1ccc(Sc2cnc(Nc3ccccn3)s2)cc1NC(=O)CC#N, the IC50 [2] was 60 nM.

CC(=O)N1CCN(C(=O)c2cccc(Sc3cnc(Nc4ccccn4)s3)c2)CC1 gave an IC50 [2] of 240 nM.

For Cc1ccc(Sc2cnc(Nc3cccc(Br)n3)s2)cc1C(=O)N1CCN(C(=O)[C@H](C)N)CC1, the IC50 [5] was 520 nM, the IC50 [1] was 3520 nM and the IC50 [6] was 360 nM. The IC50 [7] was > 1000 nM, the IC50 [2] was 1 nM and the IC50 [3] was 1150 nM. The IC50 [4] was 4260 nM.

Compound Cc1ccc(Sc2cnc(Nc3ccccn3)s2)cc1C(=O)N1CCNCC1 has an IC50 [2] of 160 nM.

With CCNC(=O)c1cc(Sc2cnc(Nc3ccccn3)s2)ccc1C the IC50 [1] was > 10000 nM, the IC50 [2] was > 5000 nM and the IC50 [3] was > 10000 nM. The IC50 [4] was > 10000 nM.

Work on CCC(=O)N1CCN(C(=O)c2cc(Sc3cnc(Nc4cccc(Br)n4)s3)ccc2C)CC1 yielded an IC50 [2] of 21 nM.

Cc1ccc(Sc2cnc(Nc3ccccn3)s2)cc1C(=O)NC(C)C showed an IC50 [2] of 2000 nM.

Cc1ccc(Sc2cnc(Nc3ccccn3)s2)cc1C(N)=O gave an IC50 [2] of 790 nM.

Work on CC(=O)N1CCN(C(=O)c2ccccc2Sc2cnc(Nc3cccc(Br)n3)s2)CC1 yielded an IC50 [2] of 1900 nM.

Cc1ccc(Sc2cnc(Nc3ccccn3)s2)cc1C(=O)N1CCN(S(C)(=O)=O)CC1 gave an IC50 [2] of 910 nM.

For CC(=O)N1CCN(C(=O)c2cc(Sc3cnc(Nc4ccccn4)s3)ccc2C)CC1, the IC50 [2] was 80 nM.

For COC(=O)N1CCN(C(=O)c2cc(Sc3cnc(Nc4ccccn4)s3)ccc2C)CC1, the IC50 [2] was 210 nM.

For CC(=O)NCCNC(=O)c1cc(Sc2cnc(Nc3ccccn3)s2)ccc1C, the IC50 [2] was 320 nM.

Work on CC(=O)N1CCN(C(=O)c2ccc(Sc3cnc(Nc4cccc(Br)n4)s3)cc2)CC1 yielded an IC50 [2] of 1300 nM.
